The source of these data is ChEMBL document CHEMBL1909046, “DrugMatrix in vitro pharmacology data”.

One assay addresses T1, B2 bradykinin receptor (Homo sapiens, UniProt P30411).
T1 sequence (P30411 whole entry): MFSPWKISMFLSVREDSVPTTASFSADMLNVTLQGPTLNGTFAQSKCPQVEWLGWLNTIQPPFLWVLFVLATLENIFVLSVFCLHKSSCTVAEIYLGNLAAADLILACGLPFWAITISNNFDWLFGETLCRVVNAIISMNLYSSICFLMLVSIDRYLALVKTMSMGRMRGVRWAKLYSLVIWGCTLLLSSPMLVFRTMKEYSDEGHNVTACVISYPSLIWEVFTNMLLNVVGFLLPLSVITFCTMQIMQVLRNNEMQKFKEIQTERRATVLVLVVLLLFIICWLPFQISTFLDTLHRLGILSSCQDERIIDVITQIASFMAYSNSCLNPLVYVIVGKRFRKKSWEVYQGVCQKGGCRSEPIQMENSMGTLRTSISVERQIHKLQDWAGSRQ
Format: cell membranes, Membrane. The note with it: chem-1.

Assay [1] has as its target T2, Neuropeptide Y receptor type 1 (Homo sapiens, UniProt P25929). Further: in other assays of this panel Not Active means under 50% inhibition at 10 µM.
T2 sequence (P25929 whole entry): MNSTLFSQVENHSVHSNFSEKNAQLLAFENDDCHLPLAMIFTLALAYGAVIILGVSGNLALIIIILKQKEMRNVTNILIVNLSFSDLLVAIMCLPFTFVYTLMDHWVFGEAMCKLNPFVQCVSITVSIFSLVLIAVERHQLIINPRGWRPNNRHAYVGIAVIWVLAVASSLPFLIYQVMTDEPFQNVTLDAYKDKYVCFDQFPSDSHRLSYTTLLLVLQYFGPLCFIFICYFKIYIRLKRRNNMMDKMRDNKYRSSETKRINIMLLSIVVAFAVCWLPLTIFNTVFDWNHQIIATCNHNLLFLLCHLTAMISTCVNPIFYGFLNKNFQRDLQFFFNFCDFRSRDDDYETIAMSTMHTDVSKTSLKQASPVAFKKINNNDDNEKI
Format: cell membranes, Membrane. The note with it: sk-n-mc.

For assay [2], the target named is T3, Nitric oxide synthase, inducible (Mus musculus, UniProt P29477).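 Further: inhibition of iNOS enzyme activity measured with L-arginine as substrate; in other assays of this panel Not Active means under 50% inhibition at 10 µM.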
T3 sequence (P29477 whole entry): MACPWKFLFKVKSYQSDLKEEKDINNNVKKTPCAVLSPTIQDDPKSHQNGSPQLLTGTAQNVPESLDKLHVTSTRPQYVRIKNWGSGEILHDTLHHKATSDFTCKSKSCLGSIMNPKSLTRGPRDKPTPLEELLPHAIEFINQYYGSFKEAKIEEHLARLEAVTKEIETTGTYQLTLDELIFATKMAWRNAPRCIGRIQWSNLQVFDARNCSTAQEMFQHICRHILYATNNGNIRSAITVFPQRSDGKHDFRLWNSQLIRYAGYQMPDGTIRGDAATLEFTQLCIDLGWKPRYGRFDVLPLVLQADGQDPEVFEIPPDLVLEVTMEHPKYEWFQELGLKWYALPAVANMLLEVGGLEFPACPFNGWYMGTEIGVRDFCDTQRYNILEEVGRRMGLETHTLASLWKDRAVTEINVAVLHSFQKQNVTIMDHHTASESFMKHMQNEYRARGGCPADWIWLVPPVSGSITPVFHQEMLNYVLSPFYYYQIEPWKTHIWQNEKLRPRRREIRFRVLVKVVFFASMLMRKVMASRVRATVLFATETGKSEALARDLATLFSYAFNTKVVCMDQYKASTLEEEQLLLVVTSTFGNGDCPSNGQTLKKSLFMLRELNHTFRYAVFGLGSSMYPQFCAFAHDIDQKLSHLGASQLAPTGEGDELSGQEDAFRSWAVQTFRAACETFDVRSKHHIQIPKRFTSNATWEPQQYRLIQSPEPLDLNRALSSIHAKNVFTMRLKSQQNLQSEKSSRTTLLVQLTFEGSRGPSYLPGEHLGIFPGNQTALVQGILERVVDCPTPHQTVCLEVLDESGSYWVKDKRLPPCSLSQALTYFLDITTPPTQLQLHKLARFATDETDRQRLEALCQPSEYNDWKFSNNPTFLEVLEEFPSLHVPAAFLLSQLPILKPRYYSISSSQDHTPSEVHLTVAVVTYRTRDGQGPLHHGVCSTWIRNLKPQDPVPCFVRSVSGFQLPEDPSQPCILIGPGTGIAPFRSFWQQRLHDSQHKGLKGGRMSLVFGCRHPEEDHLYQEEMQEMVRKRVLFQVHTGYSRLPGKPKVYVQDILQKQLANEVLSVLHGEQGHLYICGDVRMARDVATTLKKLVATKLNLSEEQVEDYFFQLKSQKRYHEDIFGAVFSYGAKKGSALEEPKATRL
Also on record: species or system Escherichia coli.

Assay [3] addresses Tyrosine-protein kinase Lck (Homo sapiens, UniProt P06239). Description: DRUGMATRIX: Protein Tyrosine Kinase, LCK enzyme inhibition (substrate: Poly(Glu:Tyr)). In kind it is cell-based, Insect cells. The note with it: insect cells; Not Active = under 50% inhibition at 10 µM.
The target in assay [4] is Mitogen-activated protein kinase 1 (Homo sapiens, UniProt P28482). Description: DRUGMATRIX: Protein Serine/Threonine Kinase, ERK2 enzyme inhibition (substrate: Myelin Basic Protein). Also on record: species or system Escherichia coli. The conditions noted are these: Not Active = under 50% inhibition at 10 µM.
Mitogen-activated protein kinase 1, sequence (P28482 whole entry): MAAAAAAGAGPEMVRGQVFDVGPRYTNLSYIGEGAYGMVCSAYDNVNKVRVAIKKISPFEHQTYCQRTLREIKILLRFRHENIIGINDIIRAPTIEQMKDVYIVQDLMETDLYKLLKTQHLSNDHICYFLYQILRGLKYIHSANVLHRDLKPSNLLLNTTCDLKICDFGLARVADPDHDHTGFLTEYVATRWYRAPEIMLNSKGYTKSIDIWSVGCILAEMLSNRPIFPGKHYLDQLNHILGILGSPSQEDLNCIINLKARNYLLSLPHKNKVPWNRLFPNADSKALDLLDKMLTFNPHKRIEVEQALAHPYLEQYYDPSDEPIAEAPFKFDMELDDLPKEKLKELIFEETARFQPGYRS
In a further assay the target is Insulin receptor (Rattus norvegicus, UniProt P15127). Format: cell membranes, Wistar, Liver, Membrane. Further: in other assays of this panel Not Active means under 50% inhibition at 10 µM.
Insulin receptor, sequence (P15127 27-759 limits assumed): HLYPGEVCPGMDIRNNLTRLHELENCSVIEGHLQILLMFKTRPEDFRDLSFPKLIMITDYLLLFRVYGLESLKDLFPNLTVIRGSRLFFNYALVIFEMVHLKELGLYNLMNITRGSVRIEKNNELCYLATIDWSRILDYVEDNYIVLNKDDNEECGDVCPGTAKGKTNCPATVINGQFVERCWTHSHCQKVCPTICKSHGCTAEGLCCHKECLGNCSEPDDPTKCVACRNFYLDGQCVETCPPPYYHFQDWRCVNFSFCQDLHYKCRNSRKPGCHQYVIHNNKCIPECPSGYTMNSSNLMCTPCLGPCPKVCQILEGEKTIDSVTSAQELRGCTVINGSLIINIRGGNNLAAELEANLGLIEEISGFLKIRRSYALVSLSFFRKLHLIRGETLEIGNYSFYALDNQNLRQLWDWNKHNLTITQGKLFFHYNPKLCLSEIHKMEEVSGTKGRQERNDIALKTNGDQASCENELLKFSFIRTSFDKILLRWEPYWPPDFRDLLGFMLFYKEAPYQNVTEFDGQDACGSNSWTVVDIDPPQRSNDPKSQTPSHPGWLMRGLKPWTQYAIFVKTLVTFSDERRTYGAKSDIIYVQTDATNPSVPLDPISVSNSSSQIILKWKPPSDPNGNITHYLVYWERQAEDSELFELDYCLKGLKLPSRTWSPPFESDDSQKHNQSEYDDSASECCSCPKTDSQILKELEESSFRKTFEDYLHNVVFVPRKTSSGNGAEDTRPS
Insulin receptor, sequence (P15127 764-1383 limits assumed): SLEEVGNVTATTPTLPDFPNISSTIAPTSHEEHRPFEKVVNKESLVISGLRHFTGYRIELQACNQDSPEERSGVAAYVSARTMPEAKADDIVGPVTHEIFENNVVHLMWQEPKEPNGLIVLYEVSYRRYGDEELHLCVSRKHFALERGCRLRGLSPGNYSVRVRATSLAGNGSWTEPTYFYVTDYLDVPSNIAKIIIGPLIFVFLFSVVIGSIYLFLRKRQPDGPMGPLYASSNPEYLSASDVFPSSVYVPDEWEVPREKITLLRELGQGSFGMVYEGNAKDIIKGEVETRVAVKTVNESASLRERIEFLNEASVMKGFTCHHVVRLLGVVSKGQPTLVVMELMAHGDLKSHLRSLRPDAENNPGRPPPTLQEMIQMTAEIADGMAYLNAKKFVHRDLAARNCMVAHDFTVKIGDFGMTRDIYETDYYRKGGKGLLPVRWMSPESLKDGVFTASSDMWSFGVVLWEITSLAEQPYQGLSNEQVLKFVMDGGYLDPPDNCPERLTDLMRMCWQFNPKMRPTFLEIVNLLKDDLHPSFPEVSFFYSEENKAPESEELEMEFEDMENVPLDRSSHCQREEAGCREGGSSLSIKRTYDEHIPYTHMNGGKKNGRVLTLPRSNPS
Another assay concerns the target Estrogen receptor beta (Homo sapiens, UniProt Q92731). The note with it: sf9. Further: in other assays of this panel Not Active means under 50% inhibition at 10 µM.
Assay [5] addresses Protein phosphatase 3 catalytic subunit alpha (Homo sapiens, UniProt Q08209). More on the design: species or system Escherichia coli.

Estrogen receptor beta, sequence (Q92731 whole entry): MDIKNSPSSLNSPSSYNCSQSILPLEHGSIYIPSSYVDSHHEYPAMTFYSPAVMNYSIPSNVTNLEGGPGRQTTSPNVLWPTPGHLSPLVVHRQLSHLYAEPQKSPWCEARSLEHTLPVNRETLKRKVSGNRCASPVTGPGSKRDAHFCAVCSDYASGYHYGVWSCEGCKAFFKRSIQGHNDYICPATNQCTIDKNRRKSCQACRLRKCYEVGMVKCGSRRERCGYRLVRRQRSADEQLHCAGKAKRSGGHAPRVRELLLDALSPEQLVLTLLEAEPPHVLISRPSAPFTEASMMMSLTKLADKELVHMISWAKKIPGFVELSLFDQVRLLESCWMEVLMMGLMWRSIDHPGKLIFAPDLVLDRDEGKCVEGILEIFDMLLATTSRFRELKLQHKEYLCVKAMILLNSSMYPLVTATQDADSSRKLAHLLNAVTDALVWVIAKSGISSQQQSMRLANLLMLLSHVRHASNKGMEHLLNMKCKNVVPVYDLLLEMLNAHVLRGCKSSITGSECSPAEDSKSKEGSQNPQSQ
Tyrosine-protein kinase Lck, sequence (P06239 whole entry): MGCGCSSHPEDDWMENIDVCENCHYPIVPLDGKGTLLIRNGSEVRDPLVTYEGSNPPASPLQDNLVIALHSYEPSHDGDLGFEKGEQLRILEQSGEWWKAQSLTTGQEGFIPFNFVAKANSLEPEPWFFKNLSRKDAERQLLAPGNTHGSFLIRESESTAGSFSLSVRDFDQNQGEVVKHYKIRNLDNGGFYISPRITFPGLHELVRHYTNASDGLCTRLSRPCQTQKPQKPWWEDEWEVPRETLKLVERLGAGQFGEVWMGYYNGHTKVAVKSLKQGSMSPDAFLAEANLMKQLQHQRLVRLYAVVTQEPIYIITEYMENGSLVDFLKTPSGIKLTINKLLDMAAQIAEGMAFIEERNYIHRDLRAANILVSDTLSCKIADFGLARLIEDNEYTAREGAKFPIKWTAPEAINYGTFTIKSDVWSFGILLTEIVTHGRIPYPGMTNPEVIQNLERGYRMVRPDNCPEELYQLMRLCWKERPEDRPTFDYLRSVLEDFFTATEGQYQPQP

Take `NC[C@H]1CC[C@H](C(=O)O)CC1` [TRANEXAMIC ACID]: the IC50 result (at B2 bradykinin receptor; in assay [1]; in assay [2]; in assay [3]; in assay [4]; against Insulin receptor) was “Not Active” each time. For the same compound, the IC50 entry (at Estrogen receptor beta; in assay [5]) was “Not Active” in each case.

Turning to `COc1c(C)c2c(c(O)c1C/C=C(\C)CCC(=O)O)C(=O)OC2` [MYCOPHENOLIC ACID], the IC50 result (at B2 bradykinin receptor; in assay [1]; in assay [2]; in assay [3]; in assay [4]; on Insulin receptor) was “Not Active” each time. The half-maximal inhibitory concentration (IC50) entry (on Estrogen receptor beta; in assay [5]) was “Not Active” in each case.

For `N[C@@H](Cc1ccc(N(CCCl)CCCl)cc1)C(=O)O`, the IC50 entry (against B2 bradykinin receptor; in assay [1]; in assay [2]; in assay [3]; in assay [4]; on Insulin receptor) was “Not Active” in each case. Further, the half-maximal inhibitory concentration (IC50) entry (against Estrogen receptor beta; in assay [5]) was “Not Active” in each case.

`CO[C@H]1/C=C/O[C@@]2(C)Oc3c(C)c(O)c4c(O)c(c(/C=N/N5CCN(C)CC5)c(O)c4c3C2=O)NC(=O)/C(C)=C\C=C\[C@H](C)[C@H](O)[C@@H](C)[C@@H](O)[C@@H](C)[C@H](OC(C)=O)[C@@H]1C` [RIFAMPIN]: the half-inhibitory concentration (IC50) entry (at B2 bradykinin receptor; in assay [1]; in assay [2]; in assay [3]; in assay [4]; on Insulin receptor) was “Not Active” in each case. The IC50 result (at Estrogen receptor beta; in assay [5]) was “Not Active” in each case.

Consider `O=NN(CCCl)C(=O)NC1CCCCC1` [LOMUSTINE], for which the half-maximal inhibitory concentration (IC50) entry (on B2 bradykinin receptor; in assay [1]; in assay [2]; in assay [3]; in assay [4]; on Insulin receptor) was “Not Active” throughout. The IC50 result (against Estrogen receptor beta; in assay [5]) was “Not Active” each time.

On to `CSc1ccc(/C=C2/C(C)=C(CC(=O)O)c3cc(F)ccc32)cc1` [SULINDAC SULFIDE], for which the IC50 entry is “Not Active” on B2 bradykinin receptor; “Not Active” in assay [1]; “Not Active” in assay [2]; “Not Active” in assay [3]; 1090 nM in assay [4] (read-out: IC50); “Not Active” at Insulin receptor. Besides, the half-maximal inhibitory concentration (IC50) entry (against Estrogen receptor beta; in assay [5]) was “Not Active” throughout.

Take `Nc1nc2ccc(OC(F)(F)F)cc2s1` [RILUZOLE]: the IC50 entry (on B2 bradykinin receptor; in assay [1]; in assay [2]; in assay [3]; in assay [4]; against Insulin receptor) was “Not Active” in each case. In addition, the IC50 entry (against Estrogen receptor beta; in assay [5]) was “Not Active” throughout.

Regarding SODIUM NITROPRUSSIDE, the IC50 result (against B2 bradykinin receptor; in assay [1]; in assay [2]; in assay [3]; in assay [4]; against Insulin receptor) was “Not Active” in each case. The IC50 entry (against Estrogen receptor beta; in assay [5]) was “Not Active” throughout. The Ki result (on B2 bradykinin receptor; in assay [1]; in assay [2]; in assay [3]; in assay [4]; on Insulin receptor) was “Not Active” each time. For the same compound, the Ki entry (on Estrogen receptor beta; in assay [5]) was “Not Active” in each case.

In the case of `Cc1noc(NS(=O)(=O)c2ccc(N)cc2)c1C` [SULFISOXAZOLE], the half-maximal inhibitory concentration (IC50) result (against B2 bradykinin receptor; in assay [1]; in assay [2]; in assay [3]; in assay [4]; on Insulin receptor) was “Not Active” throughout. The IC50 entry (on Estrogen receptor beta; in assay [5]) was “Not Active” in each case.

For the compound `Cc1cccc(N(C)C(=S)Oc2ccc3ccccc3c2)c1` [TOLNAFTATE], the 50% inhibitory concentration (IC50) entry (at B2 bradykinin receptor; in assay [1]; in assay [2]; in assay [3]; in assay [4]; at Insulin receptor) was “Not Active” throughout. Further, the IC50 result (at Estrogen receptor beta; in assay [5]) was “Not Active” in each case.

In the case of `Cc1oncc1C(=O)Nc1ccc(C(F)(F)F)cc1` [LEFLUNOMIDE], the half-inhibitory concentration (IC50) result (at B2 bradykinin receptor; in assay [1]; in assay [2]; in assay [3]; in assay [4]; against Insulin receptor) was “Not Active” in each case. Moreover, the concentration for half-maximal inhibition (IC50) entry (at Estrogen receptor beta; in assay [5]) was “Not Active” in each case.

With `CN1CCN(CCCN2c3ccccc3Sc3ccc(Cl)cc32)CC1` [PROCHLORPERAZINE], the concentration for half-maximal inhibition (IC50) result (at B2 bradykinin receptor; in assay [1]; in assay [2]; in assay [3]; in assay [4]; on Insulin receptor) was “Not Active” each time. Further, the half-maximal inhibitory concentration (IC50) result (at Estrogen receptor beta; in assay [5]) was “Not Active” in each case.

`CC[C@@H](CO)NC(=O)[C@@H]1C=C2c3cccc4[nH]cc(c34)C[C@H]2N(C)C1` [METHYLERGONOVINE]: the concentration for half-maximal inhibition (IC50) result (on B2 bradykinin receptor; in assay [1]; in assay [2]; in assay [3]; in assay [4]; against Insulin receptor) was “Not Active” in each case. Also, the half-maximal inhibitory concentration (IC50) entry (at Estrogen receptor beta; in assay [5]) was “Not Active” in each case.

In the case of `CCOC(=O)N1CCC(=C2c3ccc(Cl)cc3CCc3cccnc32)CC1` [LORATADINE], the half-inhibitory concentration (IC50) result (on B2 bradykinin receptor; in assay [1]; in assay [2]; in assay [3]; in assay [4]; at Insulin receptor) was “Not Active” throughout. In addition, the half-maximal inhibitory concentration (IC50) entry (against Estrogen receptor beta; in assay [5]) was “Not Active” in each case.

As to `CC(C)(C)NC(=O)[C@@H]1C[C@@H]2CCCC[C@@H]2CN1C[C@@H](O)[C@H](Cc1ccccc1)NC(=O)[C@H](CC(N)=O)NC(=O)c1ccc2ccccc2n1`, the half-inhibitory concentration (IC50) result (on B2 bradykinin receptor; in assay [1]; in assay [2]; in assay [3]; in assay [4]; against Insulin receptor) was “Not Active” each time. In addition, the half-maximal inhibitory concentration (IC50) result (against Estrogen receptor beta; in assay [5]) was “Not Active” each time.

The IC50 is the point on the concentration scale where inhibition reaches its midpoint.
